# Measurements from US11261201B2 (priority 2018, dated 2022).
# Where a name gives a salt, the structure may show the parent alone. Read-outs that look alike come from different tables or passages of the source.
# Columns and labels:
# [1] = system: H37RvMA; assay: Tuberculosis Alamar Blue/Resazurin assay (MIC); format: cell-based; conditions: read-out: WT H37Rv MTB Activity
# [2] = system: A. baumannii; assay: Gram negative MIC protocol (OD600, LB, 24 h); conditions: for MIC: Acinetobacter baumannii
# Experimental: (§1) Overnight bacterial cultures were grown in LB with no added antibiotics at 37° C. with shaking. A 1:1000 dilution of these cultures into LB was exposed to concentration gradients of compounds in 96-well plates (100 μL per well assay volume). Resulting plates were incubated at 37° C. for 24 h without shaking, and OD600 was measured at the end of the incubation. MICs were determined as the lowest concentrations at which OD600 remained at baseline.
# [3] = system: E. coli; assay: Gram negative MIC protocol (OD600, LB, 24 h); conditions: for MIC: Escherichia coli
# Experimental: as §1
# [4] = Mycobacterium tuberculosis, H37RV, WT H37Rv MTB
# [5] = read-out: MIC A. baumannii LB Media, A. baumannii, LB media, 24 h, OD600
# [6] = read-out: MIC E. coli delta-TolC LB Media, E. coli delta-TolC, LB media, OD600
# [7] = read-out: MIC WT E. coli LB Media, WT E. coli, LB media, OD600
# [8] = Mycobacterium tuberculosis, H37RV
# [9] = read-out: MIC E. coli delta-TolC LB Media, E. coli delta-TolC strain, LB media, 24 h, OD600
# [10] = read-out: MIC WT E. coli LB Media, wild-type E. coli, LB media, 24 h, OD600
Structure (SMILES),"MIC [1, 4]","MIC [2, 5]","MIC [3, 6]","MIC [3, 7]","MIC [3, 9]","MIC [3, 10]",other results
c1ccc(CNCC2CCCC2)cc1 [B141],> 150 µM,> 150 µM,> 150 µM,> 150 µM,–,–,–
"CC(CN1Cc2ccccc2CC1=O)C1CCCCC1 (stereo not shown) [B413, 2-(2-cyclohexylpropyl)-1,4-dihydroisoquinolin-3(2H)-one]",7.4 µM,> 150 µM,55 µM,> 150 µM,–,–,–
OC(CNCc1ccccc1)c1cccc2ccccc12 (stereo not shown) [B19],–,–,–,–,–,–,"MIC ([1]; WT H37Rv MTB): 150 µM; MIC A. baumannii LB Media ([2]; A. baumannii, LB media, OD600): >150 µM; MIC E. coli delta-TolC LB Media ([3]; E. coli delta-TolC, LB media, OD600): >150 µM; MIC WT E. coli LB Media ([3]; WT E. coli, LB media, OD600): >150 µM"
FC1(F)Oc2ccc(CCNCc3ccccc3)cc2O1 [B120],–,–,> 150 µM,> 150 µM,–,–,"MIC [1, 8]: > 150 µM; MIC ([2]; read-out: MIC A. baumannii LB Media): > 150 µM"
"NC(=O)C(CC1CCCCC1)NCc1ccccc1 (stereo not shown) [B205, 2-(benzylamino)-3-cyclohexylpropanamide hydrochloride]",> 150 µM,> 300 µM,–,–,> 300 µM,> 300 µM,–
CC1(C)CCC2(CC2CNCc2ccccc2)c2ccccc21 (stereo not shown) [B109],55 µM,150 µM,91 µM,> 150 µM,–,–,–
CC(CC1CCCCC1)NCc1ccccc1OCc1cn2ccccc2n1 (stereo not shown) [B244],150 µM,150 µM,–,–,3 µM,91 µM,–
COc1ccc(CC(C)NCc2ccccc2)c2ccccc12 (stereo not shown) [B201],–,170 µM,–,–,96 µM,> 300 µM,"MIC [1, 8]: 91 µM"
c1ccc(CNCC2(c3ccc4c(c3)OCO4)CC2)cc1 [B18],–,> 150 µM,> 150 µM,> 150 µM,–,–,"MIC [1, 8]: > 150 µM"
COC(=O)C(C)Oc1ccccc1CNC(C)CC1CCCCC1 (stereo not shown) [B327],> 150 µM,> 150 µM,–,–,7 µM,> 150 µM,–
CC(CC1CCCCC1)NCc1ccccc1OCc1ccncc1 (stereo not shown) [B283],150 µM,91 µM,–,–,7 µM,91 µM,–
"CC(CC1CCCCC1)NCc1ccccc1CS(=O)(=O)N[C@H]1C[C@@H](C(=O)O)C1 (stereo partly drawn) [B453, (1S,3S)-3-(((2-(((1-cyclohexylpropan-2-yl)amino)methyl)phenyl)methyl)sulfonamido)cyclobutane-1-carboxylic acid]",> 150 µM,> 150 µM,20 µM,> 150 µM,–,–,–
"O=C1Cc2ccccc2CN1CCC1CCCCCC1 [B422, 2-(2-cycloheptylethyl)-1,4-dihydroisoquinolin-3(2H)-one]",2.5 µM,> 150 µM,150 µM,> 150 µM,–,–,–
CC(CC1CCCO1)NCc1ccccc1 (stereo not shown) [B20],> 150 µM,> 150 µM,> 150 µM,> 150 µM,–,–,–
COCc1cccc(CNCCC2CCCCC2)c1 [B350],> 150 µM,> 150 µM,–,–,> 150 µM,> 150 µM,–
c1ccc(CNCC2CCC2)cc1 [B135],> 150 µM,> 150 µM,> 150 µM,> 150 µM,–,–,–
c1ccc(CNCCc2ccc3ccccc3n2)cc1 [B155],> 150 µM,> 150 µM,> 150 µM,> 150 µM,–,–,–
CC(CC1CCCCC1)NCc1ccccc1OCc1cccnc1 (stereo not shown) [B296],> 150 µM,> 150 µM,–,–,7 µM,91 µM,–
C1=C(CCNCc2cccnc2)CCCC1 [B4],–,> 150 µM,> 150 µM,> 150 µM,–,–,"MIC [1, 8]: > 150 µM"
CC(NCc1ccccc1)C12C[C@H]3C[C@H](C1)C[C@@H](C2)C3 (stereo partly shown) [B80],> 150 µM,> 150 µM,90 µM,250 µM,–,–,–
"Cc1cccc(CNCCC2=CCCCC2)c1 [B11, 2-(cyclohex-1-en-1-yl)-N-(3-methylbenzyl)ethan-1-amine]",> 150 µM,> 150 µM,> 150 µM,> 150 µM,–,–,–
"c1ccc(OCC2CCCCO2)c(CNCCC2CCCCC2)c1 (stereo not shown) [B328, 2-cyclohexyl-N-(2-((tetrahydro-2H-pyran-2-yl)methoxy)benzyl)ethanamine hydrochloride]",150 µM,> 150 µM,–,–,55 µM,> 150 µM,–
COc1cccc(CNCCC2=CCCCC2)c1 [B143],> 150 µM,> 150 µM,> 150 µM,> 150 µM,–,–,–
c1ccc(CNCCc2cccc3ccccc23)cc1 [B192],33 µM,300 µM,96 µM,300 µM,–,–,–
COCC(C)NC(=O)NC(=O)COc1ccccc1CNC(C)CC1CCCCC1 (stereo not shown) [B308],> 150 µM,150 µM,–,–,4 µM,> 150 µM,–
